From patent US7563787B2, “Substituted pyrazole compounds” (Miikana Therapeutics, Inc., priority 2005, dated 2009)

Experiments:
[1] = target: T1, recombinant Aurora A (Homo sapiens, UniProt O14965); test: Aurora A (Aurora 2) Inhibition Assay (Z'-Lyte); type: biochemical; settings: 100 μM compound; ATP 10 μM; 1 h
T1 construct: purchased Upstate, Lake Placid, N.Y
T1 sequence (O14965 1-403): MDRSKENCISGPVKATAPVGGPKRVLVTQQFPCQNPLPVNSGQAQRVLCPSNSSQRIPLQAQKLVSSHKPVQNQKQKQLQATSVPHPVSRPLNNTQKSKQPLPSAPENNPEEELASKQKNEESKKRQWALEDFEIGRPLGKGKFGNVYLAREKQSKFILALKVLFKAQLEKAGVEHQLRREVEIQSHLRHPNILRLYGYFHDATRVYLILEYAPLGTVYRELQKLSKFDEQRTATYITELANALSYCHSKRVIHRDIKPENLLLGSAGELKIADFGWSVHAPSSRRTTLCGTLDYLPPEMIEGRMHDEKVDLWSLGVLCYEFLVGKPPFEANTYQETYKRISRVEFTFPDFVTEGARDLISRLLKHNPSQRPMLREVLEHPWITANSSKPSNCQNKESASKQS
Method: Compounds were tested for their potency against recombinant Aurora A (Upstate, Lake Placid, N.Y.) using the PanVera Z'-Lyte kinase assay kit-Ser/[…] peptide (Invitrogen, Carlsbad, Calif.). […] Assays were carried out in half-area 96-well white polystyrene assay plates (Corning, Corning, N.Y.) in a final volume of 20 μl. The reaction was allowed to proceed for 1 h at room temperature in the dark, at which point the development reagent and stop reagent were added according to the manufacturer's instructions. Coumarin (Ex. 400 nm, Em. 465 nm) and fluorescein (Ex. 400 nm, Em. 565 nm) fluorescence values were measured on a SpectraFluor Plus plate reader (Tecan, Durham, N.C.). The emission ratio (coumarin/fluorescein) was determined and used to calculate the percent phosphorylation for each well. […] Typically 20-40% of the substrate was phosphorylated in wells without inhibitor. Dose-response curves of relative Aurora A activity vs. inhibitor concentration were plotted with Grafit (Erithacus Software, Horley, Surrey, UK).

[2] = tested on: HCT-116 cell growth; test: Whole Cell Cytotoxicity Assay: Sulforhodamine B; type: cell-based, Human; settings: Homo sapiens, HCT-116; 100 μM compound; 96 hours; SRB staining
Method: Human tumor-derived cell lines, HCT116 or MCF7 (ATCC) were plated in a 96 well plate in DMEM containing 10% fetal bovine serum and 2 mM L-glutamine at a density of 500 HCT116 cells or 1,000 MCF7 cells per well and incubated at 37° C., 5% CO2, for 24 hours prior to the addition of experimental compounds. Compounds were added using the dilution series indicated to duplicate plates and the cells were incubated in media plus compound for 96 hours. An additional plate was fixed in 10% TCA at the time of the addition of compound to provide a measurement of the cell population at time zero, the time of drug addition. Following the 96 hour incubation, cells were fixed in situ by gently aspirating off the culture media and then adding 50 ul of ice cold 10% TCA per well and incubation at 4° C. for 60 minutes. The plates were washed with tap water five times and allowed to air dry for 5 minute. 50 ul of a 0.4% (w/v) Sulforhodamine B solution in 1% (v/v) acetic acid was added per well and the cells were incubated for 30 minutes at room temperature. Following staining, plates were washed four times with 1% acetic acid to remove any unbound dye and then allowed to air dry for 5 minutes. The stain was solubilized with 100 ul of 10 mM Tris pH 10.5 per well and placed on an orbital rotator for 5 minutes. The absorbance was read at 570 nm. Percentage growth was calculated using the absorbance readings from the time zero plate (Tz) and the dilution series plate […] which included a column of cells grown in media without compound as a control (C) using the formulas: [(Ti−Tz)/(C−Tz)]×100 for concentrations for which Ti>/=Tz [(Ti−Tz)/Tz]×100 for concentrations for which Ti<Tz.
Three dose response parameters were calculated for each experimental agent. Growth inhibition of 50% (GI50) was calculated from [(Ti−Tz)/(C−Tz)]×100=50, which was the drug concentration resulting in a 50% reduction in the net protein increase (as measured by SRB staining) in control cells during the drug incubation. The drug concentration resulting in total growth inhibition (TGI) was calculated from Ti=Tz. The LC50 (concentration of drug resulting in a 50% reduction in the measured protein at the end of the drug treatment as compared to that at the beginning) indicating a net loss of cells following treatment was calculated from [(Ti−Tz)/Tz]×100=−50. Values are calculated for each of these three parameters if the level of activity was reached; however, if the effect was not reached or was exceeded, the value for that parameter is expressed as greater or less than the maximum or minimum concentration tested.

[3] = target: T2, Aurora B kinase (Homo sapiens, UniProt Q96GD4); test: Aurora B (Aurora 1) Inhibition Assay; type: biochemical; settings: 100 μM compound; ATP 50 μM; 16 h
T2 construct: purchased BPS Biosciences, San Diego, Calif
Method: Assays for Aurora B kinase inhibition were carried out similarly to those for Aurora A kinase (see above) with the following modifications. Aurora B kinase (BPS Biosciences, San Diego, Calif.) was used as the enzyme, at a concentration was 2.5 μg/mL. The ATP concentration was 50 μM, and the kinase reaction was allowed to proceed for 16 h. Sodium orthovanadate (20 μM) was added to the buffer to inhibit contaminating phosphatases.

T2 sequence (Q96GD4 whole entry): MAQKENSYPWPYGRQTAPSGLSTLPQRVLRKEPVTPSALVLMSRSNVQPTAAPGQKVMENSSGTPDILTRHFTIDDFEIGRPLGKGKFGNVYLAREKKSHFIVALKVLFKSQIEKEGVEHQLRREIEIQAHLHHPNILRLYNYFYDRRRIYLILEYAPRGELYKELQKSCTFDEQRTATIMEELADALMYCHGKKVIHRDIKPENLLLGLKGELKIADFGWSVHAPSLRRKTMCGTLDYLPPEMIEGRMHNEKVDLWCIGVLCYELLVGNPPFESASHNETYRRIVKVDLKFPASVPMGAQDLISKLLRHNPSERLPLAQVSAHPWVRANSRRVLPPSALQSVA

| Structure (SMILES) | inhibition at 100 µM [1] | inhibition at 100 µM [2] | inhibition at 100 µM [3] |
| --- | --- | --- | --- |
| Cc1cc(Nc2cc(N3CCN(C)CC3)nc(/C=C/c3ccco3)n2)n[nH]1 [Example 60, 2-((E)-2-(furan-2-yl)vinyl)-N-(5-methyl-1H-pyrazol-3-yl)-6-(4-methylpiperazin-1-yl)pyrimidin-4-amine] | 100% | 98% | 99% |
| COC(=O)c1cc(Nc2cc(C)n[nH]2)nc(/C=C/c2ccccc2)n1 [Example 26, methyl 6-[(3-methyl-1H-pyrazol-5-yl)amino]-2-[(E)-2-phenylvinyl]pyrimidine-4-carboxylate] | 99% | 98% | 95% |
| Cc1cc(Nc2cc(N3CCN(C)CC3)nc(/C=C\c3ccccc3)n2)n[nH]1 [Example 32, 6-(4-methylpiperazin-1-yl)-N-(3-methyl-1H-pyrazol-5-yl)-2-[(Z)-2-phenylvinyl]pyrimidin-4-amine] | 100% | 87% | 99% |
| COCCNc1cc(Nc2cc(C)[nH]n2)nc(/C=C/c2ccccc2)n1 [Example 163, N^4-(2-methoxyethyl)-N^6-(5methyl-1H-pyrazol-3-yl)-2-styrylpyrimidine-4,6-diamine] | 100% | 98% | 100% |
| Cc1cc(Nc2cc(N3CCN(C)CC3)nc(C#Cc3ccccc3)n2)n[nH]1 [Example 30, 6-(4-methylpiperazin-1-yl)-N-(3-methyl-1H-pyrazol-5-yl)-2-(phenylethynyl)pyrimidin-4-amine] | 100% | 99% | 97% |
| CCOC(=O)c1nc(/C=C/c2ccccc2)nc(Nc2cc(C)n[nH]2)c1N [Example 18, ethyl 5-amino-6-[(3-methyl-1H-pyrazol-5-yl)amino]-2-[(E)-2-phenylvinyl]pyrimidine-4-carboxylate] | 100% | 80% | 100% |
| Cc1cc(Nc2cc(NCC3CCCO3)nc(/C=C/c3ccccc3)n2)n[nH]1 (stereo not drawn) [Example 164, N^4-((tetrahydrofuran-2-yl)methyl)-N^6-(5-methyl-1H-pyrazol-3-yl)-2-styrylpyrimidine-4,6-diamine] | 100% | 96% | 100% |
| Cc1cc(Nc2cc(OC3CCNCC3)nc(/C=C/c3ccccc3)n2)n[nH]1 [Example 100] | 100% | 96% | 100% |
